Experimental data taken from patent US7163696B2, “Pharmaceutical formulations” (Pfizer Inc., priority 2001, dated 2007).

What was measured:
[1] = Measurement of Papp values across Caco-2 cell monolayers (Example 15); type: in vitro ADME; settings: human, initial concentration in donor (apical) chamber 25 μM, 37° C.
Description: P Artursson and J Karlsson described the use of monolayers of Caco-2 cells to generate apparent permeability coefficients (Papp values) for drug absorption across the intestinal epithelium in ‘Correlation between oral drug absorption in humans and apparent drug permeability coefficients in human intestinal epithelial (Caco-2) cells’, Biochemical and Biophysical Research Communications, Vol 175 (3), pp 880–885, 1991.
Preferably, when measuring the Papp value, the initial concentration of test compound in the donor chamber is at a relevant therapeutic concentration, for example 25 μM.
Caco-2 cells originating from a human colon carcinoma were obtained from the ATCC (HTB-37) and were used between passage number 24–44. Cells were maintained in MEM with Earles salts containing 2 mM L-glutamine, 1 mM sodium pyruvate, 1% (v/v) MEM non-essential amino acids (Gibco) and 20% foetal calf serum (Sigma) at 37° C. in an atmosphere of 5% CO2 and 90% relative humidity. Falcon 24 well filter inserts (Becton Dickinson) were seeded with 4×10^4 cells/well. […]
Transport data across the Caco-2 cell monolayers is expressed as Papp values. Papp values are calculated according to the equation disclosed by Artursson and Karlsson as follows: Papp=(dQ/dt)(1/AC0), wherein dQ/dt is the permeability rate, Co the initial concentration in the donor chamber, and A the surface area of the monolayer.

[2] = Bioavailability testing by the applicants (unpublished); settings: in vivo

Row | SMILES | Papp A→B at 2 h, 25 μM [1] [×10⁻⁶ cm/s] | absorption from the colon [2]
1 | COc1cc2nc(N3CCc4c(cccc4NS(C)(=O)=O)C3)nc(N)c2c(-c2ccccn2)c1OC.CS(=O)(=O)O [4-amino-6,7-dimethoxy-2-(5-methanesulfonamido-1,2,3,4-tetrahydroisoquinol-2-yl)-5-(2-pyridyl)quinazoline mesylate] | 11 | 
2 | COc1cc2nc(N3CCc4c(cccc4NS(C)(=O)=O)C3)nc(N)c2c(-c2ccccn2)c1OC [4-amino-6,7-dimethoxy-2-(5-methanesulfonamido-1,2,3,4-tetrahydroisoquinol-2-yl)-5-(2-pyridyl)quinazoline] |  | low, and highly variable
